From patent US5877334A, “Intermediates useful in solid phase synthesis method” (Abbott Laboratories, priority 1996, dated 1999)

target: HIV1 protease (Human immunodeficiency virus type 1 group M subtype B, UniProt P04585); assay: inhibition of HIV1 protease; assay type: biochemical; details: A. Mono-ol (X = H); read-out: IC50 against HIV1 protease, A. Mono-ol (X = H)
Procedure: ^a The IC50 against HIV1 protease was measured according to the
method described in U.S. Pat. No. 5,354,866, issued October 11, 1994.

IC50, < 1 nM:
CC(C)[C@H](NC(=O)CC1NC(=O)NC1=O)C(=O)N[C@@H](Cc1ccccc1)C[C@H](O)[C@H](Cc1ccccc1)NC(=O)[C@@H](NC(=O)CC1NC(=O)NC1=O)C(C)C (stereo partly shown) [Example 7A]
CC(C)[C@H](NC(=O)Cc1csc(N)n1)C(=O)N[C@@H](Cc1ccccc1)C[C@H](O)[C@H](Cc1ccccc1)NC(=O)[C@@H](NC(=O)Cc1csc(N)n1)C(C)C [Example 8A]
COc1cc(CC(=O)N[C@H](C(=O)N[C@@H](Cc2ccccc2)C[C@H](O)[C@H](Cc2ccccc2)NC(=O)[C@@H](NC(=O)Cc2cc(OC)c(OC)c(OC)c2)C(C)C)C(C)C)cc(OC)c1OC [Example 9A]
CC(C)[C@H](NC(=O)CSc1ncccn1)C(=O)N[C@@H](Cc1ccccc1)C[C@H](O)[C@H](Cc1ccccc1)NC(=O)[C@@H](NC(=O)CSc1ncccn1)C(C)C [Example 10A]
